# From patent EP4252780A1, “BIOLOGICALLY ACTIVE MATERIAL CONJUGATE HAVING BIOTIN MOIETY, FATTY ACID MOIETY, OR COMBINATION THEREOF COUPLED THERETO” (priority 2020, dated 2022)
# Non-standard residues stand in square brackets, D forms with d. No end group written: not given here. F14 = C20-Glu-EG2-EG2-MAL; B38 = not defined here; Aib = CC(C)(N)C(=O)O
# Assay: body weight change after 2 weeks of subcutaneous administration in obese mouse model
# Type: in vivo
# Settings: subcutaneous for 2 weeks, FIG. 10
# Method: Conjugates 58 and 59 were subcutaneously administered for 2 weeks into an obese mouse model, then body weight changes were measured.
row,Substance,body weight compared to the untreated group
1,Conjugate 59: polypeptide SEQ ID NO 8; biotin moiety B38 at K12; fatty acid moiety F14 at C30 (H[Aib]QGTFTSDYSK(B38)YLDEQAAKEFVQWLMNTC(F14); reading uncertain),substantially reduced

# Assay: body weight reduction and feed intake over 24 hours after oral administration
# Type: in vivo
# Settings: oral administration to mice
row,Substance,Weight loss (%) compared to untreated group
1,Conjugate 33: polypeptide SEQ ID NO 24; biotin moiety B38 at K1 (K(B38)CNTATCATQRLANFLVHSSNNFGPILPPTNVGSNTY; ends and bridges not checked),-4.07 ± 1.30%
2,"Conjugate 61: polypeptide SEQ ID NO 24; biotin moiety B38 at K1; fatty acid moiety F11 at K1 (K(B38)CNTATCATQRLANFLVHSSNNFGPILPPTNVGSNTY; ends and bridges not checked; also: fatty acid F11 also at K1, attachment order not given here)",-2.96 ± 4.22%
3,Polypeptide SEQ ID NO 24: amylin derivative KCNTATCATQRLANFLVHSSNNFGPILPPTNVGSNTY (Amylin derivative) [reference compound],-2.63 ± 1.06%
4,Polypeptide SEQ ID NO 26: amylin derivative KCNTATCATQRLADFLLRHSSPNFGAIPSSTNVGSRTY (KCNTATCATQRLADFLRHSSPNFGAIPSSTNVGSRTY; Amylin derivative) [reference compound],-3.13 ± 1.05%
5,Polypeptide SEQ ID NO 28: amylin derivative KCNTATCATQRLADFLLRHSSNNFGAIPSSTNVGSRTY (KCNTATCATQRLADFLRHSSNNFGAIPSSTNVGSRTY; Amylin derivative) [reference compound],-1.11 ± 0.84%
6,Polypeptide SEQ ID NO 30: amylin derivative RCNTATCATQRLADFLLRHSSNNFGAIPSSTNVGSKTY (RCNTATCATQRLADFLRHSSNNFGAIPSSTNVGSKTY; Amylin derivative) [reference compound],-1.17 ± 0.76%
